Assay results taken from patent US20250282785A1, “PYRROLIDINONE DERIVATIVES AS INHIBITORS OF NF KAPPA B INDUCING KINASE” (priority 2022, published 2025).

Key:
[1] = biological target: Recombinant Human NF-Kappab-Inducing Kinase (NIK/MAP3K14) (Homo sapiens, UniProt Q99558); assay: Inhibition of auto-phosphorylation of recombinant human NIK/MAP3K14 (AlphaScreen); type: biochemical; settings: NIK/MAP3K14 auto-phosphorylation, 5 microM ATP, 1 nM enzyme, 2 h at 25° C.; average of values; read-out: Assay 1 IC50
Recombinant Human NF-Kappab-Inducing Kinase (NIK/MAP3K14), sequence (Q99558 whole entry): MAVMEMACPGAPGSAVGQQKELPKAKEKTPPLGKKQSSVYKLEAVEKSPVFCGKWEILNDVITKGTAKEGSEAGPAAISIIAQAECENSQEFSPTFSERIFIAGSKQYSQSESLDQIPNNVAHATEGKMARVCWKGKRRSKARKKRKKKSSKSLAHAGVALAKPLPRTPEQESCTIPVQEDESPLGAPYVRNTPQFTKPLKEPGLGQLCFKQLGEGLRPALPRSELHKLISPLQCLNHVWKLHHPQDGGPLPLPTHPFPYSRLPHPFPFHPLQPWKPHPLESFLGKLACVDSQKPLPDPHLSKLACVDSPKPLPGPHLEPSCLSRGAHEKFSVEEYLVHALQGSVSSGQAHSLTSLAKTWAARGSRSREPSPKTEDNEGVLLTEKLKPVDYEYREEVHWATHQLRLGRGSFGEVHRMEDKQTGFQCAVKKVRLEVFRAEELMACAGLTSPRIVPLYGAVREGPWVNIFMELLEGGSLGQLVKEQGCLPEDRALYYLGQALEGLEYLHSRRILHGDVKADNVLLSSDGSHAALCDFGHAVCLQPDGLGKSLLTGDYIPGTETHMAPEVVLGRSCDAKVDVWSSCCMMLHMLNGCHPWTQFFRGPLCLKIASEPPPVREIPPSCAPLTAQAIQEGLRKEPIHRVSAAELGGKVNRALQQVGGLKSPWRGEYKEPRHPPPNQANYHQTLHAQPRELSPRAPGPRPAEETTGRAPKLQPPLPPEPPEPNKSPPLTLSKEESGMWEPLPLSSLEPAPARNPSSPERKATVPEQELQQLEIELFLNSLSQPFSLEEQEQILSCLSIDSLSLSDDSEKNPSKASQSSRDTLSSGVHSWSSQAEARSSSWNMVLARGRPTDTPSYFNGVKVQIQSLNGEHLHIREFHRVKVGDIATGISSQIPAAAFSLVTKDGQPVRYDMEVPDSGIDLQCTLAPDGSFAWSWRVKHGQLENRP
Summary of the method: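 AlphaScreen read-out used anti-phospho-IKK Ser176/180 antibody after 2 h, 25 °C incubation of compound, 1 nM GST-NIK and 5 µM ATP (final DMSO 0.7%). Percent inhibition referenced to high (enzyme) and low (no enzyme, no ATP) controls; sigmoidal curve fitting gave IC50.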

[2] = system: p-IKKα levels in L363 (NIK translocated multiple myeloma) cells; assay: Effect of compounds on p-IKKα levels in L363 cells (AlphaLISA SureFire Ultra); type: cell-based; settings: Homo sapiens, L-363; L363 cells, BAFF stimulated, MG132, 6 h; average of values; read-out: Assay 2 IC50
Summary of the method: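 Phospho-IKKα (Ser 176/180) was quantified by AlphaLISA in lysed L363 cells after 6 h compound exposure (0.3% DMSO, 11 points, 1:3) alongside 250 ng/ml BAFF and 10 uM MG132, following overnight BAFF priming in low-serum DMEM. Duplicate curves were scaled between BAFF/DMSO/MG132 and unstimulated DMSO wells, then fitted sigmoidally for IC50.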

With `CN1CC[C@@](O)(c2cc(-c3ccnc(-n4nc(C(N)=O)c5ccccc54)c3)no2)C1=O` [Example 22, (R)-1-(4-(5-(3-Hydroxy-1-methyl-2-oxopyrrolidin-3-yl)isoxazol-3-yl)pyridin-2-yl)-1H-indazole-3-carboxamide] the IC50 [1] was < 100 nM and the IC50 [2] was < 100 nM.
In the case of `[2H]c1nc(N)c2nc(-c3cccc(-c4cc([C@]5(O)CCN(C)C5=O)no4)c3)ccc2n1` [Example 16, (R)-3-(5-(3-(4-Aminopyrido[3,2-d]pyrimidin-6-yl-2-d)phenyl)isoxazol-3-yl)-3-hydroxy-1-methylpyrrolidin-2-one], the IC50 [1] is reported as < 100 nM and the IC50 [2] is reported as 100 to 500 nM.
`CN1CC[C@@](O)(c2cc(-c3cccc(-c4ncc(NC5COC5)c(C(N)=O)n4)c3)no2)C1=O` [Example 105, (R)-2-(3-(5-(3-Hydroxy-1-methyl-2-oxopyrrolidin-3-yl)isoxazol-3-yl)phenyl)-5-(oxetan-3-ylamino)pyrimidine-4-carboxamide] was tested, and the IC50 [1] was < 100 nM and the IC50 [2] was < 100 nM.
In the case of `CC(C)c1sc(-c2cccc(-c3cc([C@]4(O)CCN(C)C4=O)on3)c2)nc1C(N)=O` [Example 219, (R)-2-(3-(5-(3-Hydroxy-1-methyl-2-oxopyrrolidin-3-yl)isoxazol-3-yl)phenyl)-5-isopropylthiazole-4-carboxamide], the IC50 [1] is reported as < 100 nM and the IC50 [2] is reported as > 501 nM.
With `Cc1ncn2cc(-c3cccc(-c4cc([C@]5(O)CCN(C)C5=O)on4)c3)ccc12` [Example 57, (R)-3-Hydroxy-1-methyl-3-(3-(3-(1-methylimidazo[1,5-a]pyridin-6-yl)phenyl)isoxazol-5-yl)pyrrolidin-2-one] the IC50 [1] was > 501 nM and the IC50 [2] was > 501 nM.
`[2H]c1nc(N)c2nc(-c3cccc(-c4cnc([C@@]5(O)CCN(C)C5=O)s4)c3)ccc2n1` (single isomer, unassigned) [Example 32] was tested, and the IC50 [1] was < 100 nM and the IC50 [2] was > 501 nM.
In the case of `CN1CC[C@@](O)(c2cc(-c3cccc(-c4cn5ccnc5cn4)c3)no2)C1=O` [Example 70, (R)-3-Hydroxy-3-(3-(3-(imidazo[1,2-a]pyrazin-6-yl)phenyl)isoxazol-5-yl)-1-methylpyrrolidin-2-one], the IC50 [1] is reported as > 501 nM and the IC50 [2] is reported as > 501 nM.
In the case of `[2H]c1nc(N)c2nc(-c3cccc(-c4nc([C@]5(O)CCN(C)C5=O)cs4)c3)ccc2n1` (single isomer, unassigned) [Example 33], the IC50 [1] is reported as > 501 nM and the IC50 [2] is reported as > 501 nM.
With `CN1CC[C@@](O)(c2cc(-c3cccc(-c4cc(C5CC5)nc(C(N)=O)n4)c3)no2)C1=O` [Example 85, (R)-4-Cyclopropyl-6-(3-(5-(3-hydroxy-1-methyl-2-oxopyrrolidin-3-yl)isoxazol-3-yl)phenyl)pyrimidine-2-carboxamide] the IC50 [1] was < 100 nM and the IC50 [2] was > 501 nM.
With `CN1CC[C@@](O)(c2cc(-c3cccc(-c4cn(C)c(C(N)=O)n4)c3)no2)C1=O` [Example 114, (R)-4-(3-(5-(3-Hydroxy-1-methyl-2-oxopyrrolidin-3-yl)isoxazol-3-yl)phenyl)-1-methyl-1H-imidazole-2-carboxamide] the IC50 [1] was < 100 nM and the IC50 [2] was > 501 nM.
For `Cc1ncnc2ccc(-c3cccc(-c4cc([C@]5(O)CCN(C)C5=O)on4)c3)nc12` [Example 25, (R)-3-Hydroxy-1-methyl-3-(3-(3-(4-methylpyrido[3,2-d]pyrimidin-6-yl)phenyl)isoxazol-5-yl)pyrrolidin-2-one], the IC50 [1] was 100 to 500 nM and the IC50 [2] was > 501 nM.
With `CN1CC[C@@](O)(c2cc(-c3cccc(-c4c[nH]c5ncccc45)c3)no2)C1=O` [Example 24, (R)-3-(3-(3-(1H-Pyrrolo[2,3-b]pyridin-3-yl)phenyl)isoxazol-5-yl)-3-hydroxy-1-methylpyrrolidin-2-one] the IC50 [1] was 100 to 500 nM and the IC50 [2] was > 501 nM.
`COCCn1cc(-c2cc(C(N)=O)nc(-c3cccc(-c4cc([C@]5(O)CCN(C)C5=O)on4)c3)c2)cn1` [Example 189, (R)-6-(3-(5-(3-Hydroxy-1-methyl-2-oxopyrrolidin-3-yl)isoxazol-3-yl)phenyl)-4-(1-(2-methoxyethyl)-1H-pyrazol-4-yl)picolinamide] was tested, and the IC50 [1] was < 100 nM and the IC50 [2] was 100 to 500 nM.
In the case of `CN1CC[C@@](O)(c2cc(-c3cccc(-c4ncc(C(N)=O)s4)c3)no2)C1=O` [Example 212, (R)-2-(3-(5-(3-hydroxy-1-methyl-2-oxopyrrolidin-3-yl)isoxazol-3-yl)phenyl)thiazole-5-carboxamide], the IC50 [1] is reported as > 501 nM and the IC50 [2] is reported as > 501 nM.
In the case of `COc1cc(-c2cccc(-c3cc([C@]4(O)CCN(C)C4=O)on3)c2)nc2[nH]ncc12` [Example 224, (R)-3-Hydroxy-3-(3-(3-(4-methoxy-1H-pyrazolo[3,4-b]pyridin-6-yl)phenyl)isoxazol-5-yl)-1-methylpyrrolidin-2-one], the IC50 [1] is reported as 100 to 500 nM and the IC50 [2] is reported as > 501 nM.
For `CN1CC[C@@](O)(c2cc(-c3cc(F)cc(-c4cc(C5CC5)c(N)c(C(N)=O)n4)c3)no2)C1=O` [Example 243, (R)-3-Amino-4-cyclopropyl-6-(3-fluoro-5-(5-(3-hydroxy-1-methyl-2-oxopyrrolidin-3-yl)isoxazol-3-yl)phenyl)picolinamide], the IC50 [1] was < 100 nM and the IC50 [2] was < 100 nM.
With `[2H]c1nc(N)c2nc(-c3cccc(-c4n[nH]c([C@]5(O)CCN(C)C5=O)n4)c3)ccc2n1` (single isomer, unassigned) [Example 34] the IC50 [1] was > 501 nM and the IC50 [2] was > 501 nM.
In the case of `CN1CC[C@@](O)(c2cc(-c3cccc(-c4cc(C5CC5)c(N)c(C(N)=O)n4)c3)on2)C1=O` [Example 108, (R)-3-Amino-4-cyclopropyl-6-(3-(3-(3-hydroxy-1-methyl-2-oxopyrrolidin-3-yl)isoxazol-5-yl)phenyl)picolinamide], the IC50 [1] is reported as < 100 nM and the IC50 [2] is reported as < 100 nM.
For `CN1CC[C@@](O)(c2cc(-c3cccc(-c4ccnc(N)c4)c3)no2)C1=O` [Example 53, (R)-3-(3-(3-(2-Aminopyridin-4-yl)phenyl)isoxazol-5-yl)-3-hydroxy-1-methylpyrrolidin-2-one], the IC50 [1] was 100 to 500 nM and the IC50 [2] was > 501 nM.
For `CN1CC[C@@](O)(c2cc(C3CCCN(c4ccc5ncnc(N)c5n4)C3)no2)C1=O` (mixture of isomers) [Example 201, (3R)-3-(3-(1-(4-Aminopyrido[3,2-d]pyrimidin-6-yl)piperidin-3-yl)isoxazol-5-yl)-3-hydroxy-1-methylpyrrolidin-2-one], the IC50 [1] was < 100 nM and the IC50 [2] was > 501 nM.
`CN1CC[C@@](O)(c2cc(-c3cccc(-c4csc(C(N)=O)n4)c3)no2)C1=O` [Example 205, (R)-4-(3-(5-(3-Hydroxy-1-methyl-2-oxopyrrolidin-3-yl)isoxazol-3-yl)phenyl)thiazole-2-carboxamide] was tested, and the IC50 [1] was < 100 nM and the IC50 [2] was > 501 nM.
With `CN1CC[C@@](O)(c2cc(-c3cccc(-c4cc(N[C@H]5CCOC5)cc(C(N)=O)n4)c3)no2)C1=O` [Example 131, 6-(3-(5-((R)-3-Hydroxy-1-methyl-2-oxopyrrolidin-3-yl)isoxazol-3-yl)phenyl)-4-(((S)-tetrahydrofuran-3-yl)amino)picolinamide] the IC50 [1] was > 501 nM and the IC50 [2] was > 501 nM.
`CN1CC[C@@](O)(c2cc(-c3cccc(-c4nc(C(N)=O)c(C5CCC5)s4)c3)no2)C1=O` [Example 221, (R)-5-Cyclobutyl-2-(3-(5-(3-hydroxy-1-methyl-2-oxopyrrolidin-3-yl)isoxazol-3-yl)phenyl)thiazole-4-carboxamide] was tested, and the IC50 [1] was < 100 nM and the IC50 [2] was > 501 nM.
For `CN1CC[C@@](O)(c2cc(-c3cccc(-c4ncc5cnn(C)c5n4)c3)no2)C1=O` [Example 227, (R)-3-Hydroxy-1-methyl-3-(3-(3-(1-methyl-1H-pyrazolo[3,4-d]pyrimidin-6-yl)phenyl)isoxazol-5-yl)pyrrolidin-2-one], the IC50 [1] was 100 to 500 nM and the IC50 [2] was > 501 nM.
In the case of `Cc1cn2nc(-c3cccc(-c4cc([C@]5(O)CCN(C)C5=O)on4)c3)ccc2n1` [Example 65, (R)-3-Hydroxy-1-methyl-3-(3-(3-(2-methylimidazo[1,2-b]pyridazin-6-yl)phenyl)isoxazol-5-yl)pyrrolidin-2-one], the IC50 [1] is reported as > 501 nM and the IC50 [2] is reported as > 501 nM.
In the case of `CN1CC[C@@](O)(c2cc(-c3cccc(-c4c[nH]c5nccnc45)c3)no2)C1=O` [Example 163, (R)-3-(3-(3-(5H-Pyrrolo[2,3-b]pyrazin-7-yl)phenyl)isoxazol-5-yl)-3-hydroxy-1-methylpyrrolidin-2-one], the IC50 [1] is reported as < 100 nM and the IC50 [2] is reported as > 501 nM.
For `CN1CC[C@@](O)(c2cc(-c3cccc(-c4ccc5cnn(C)c5n4)c3)no2)C1=O` [Example 78, (R)-3-Hydroxy-1-methyl-3-(3-(3-(1-methyl-1H-pyrazolo[3,4-b]pyridin-6-yl)phenyl)isoxazol-5-yl)pyrrolidin-2-one], the IC50 [1] was 100 to 500 nM and the IC50 [2] was > 501 nM.
With `[2H]c1nc(N)c2nc(-c3cccc(-c4ncc([C@]5(O)CCN(C)C5=O)o4)c3)ccc2n1` (single isomer, unassigned) [Example 39] the IC50 [1] was > 501 nM and the IC50 [2] was > 501 nM.
`CNc1ccc(-c2cccc(-c3cc([C@]4(O)CCN(C)C4=O)on3)c2)nc1C(N)=O` [Example 104, (R)-6-(3-(5-(3-Hydroxy-1-methyl-2-oxopyrrolidin-3-yl)isoxazol-3-yl)phenyl)-3-(methylamino)picolinamide] was tested, and the IC50 [1] was < 100 nM and the IC50 [2] was < 100 nM.
For `COc1cc(-c2cccc(-c3cc([C@]4(O)CCN(C)C4=O)on3)c2)cc2c1cnn2C` [Example 76, (R)-3-Hydroxy-3-(3-(3-(4-methoxy-1-methyl-1H-indazol-6-yl)phenyl)isoxazol-5-yl)-1-methylpyrrolidin-2-one], the IC50 [1] was 100 to 500 nM and the IC50 [2] was > 501 nM.
